Data published in US6998144B2, “Method of improving sweetness delivery of sucralose” (McNeil-PPC, Inc., priority 1998, dated 2006).
Residues, ends and D or L forms follow the SMILES beside them.

What was measured:
[1] = test system: trained panelists; experiment: Sweetness time-intensity study of equally sweet solutions, 12 trained panelists; format: in vivo
Protocol: The data in Table 1 (“STIME”) in the Examples below correlate with the curves shown in this Figure. Imax: maximum intensity recorded. Tmax: first time that maximum intensity was recorded. Tend: last time that a non-zero intensity was recorded. Tdec50: last time that an intensity greater than 50% of Imax was recorded (i.e. the time at which the intensity had decreased to 50% of Imax). Tdec10: same as for Tdec50, but at 10% of Imax. Area: area under the curve. Tdecline: time interval from Tmax to Tdec10. The experiments giving rise to the data in this Figure and Table 1 are described in Example 1 below.
The data in Table 2 (“ATIME”) in the Examples below correlate with the curves shown in this Figure. These curve parameters, as shown in the Table, are defined as per those in FIG. 1. The experiments giving rise to the data in this Figure are described in Example 1 below.
For sweetness time-intensity studies, room temperature equally sweet solutions were presented to 12 trained panelists. The panelists had been screened for general sensory acuity and trained in general methods for sweetener assessment as well as time-intensity methods. […]
The data collected by the computer were read every second, for a total of 180 data points per tasting. Mean panelist response was calculated for each time data point. […]

[2] = test system: trained evaluators; experiment: Determination of equally sweet levels in bottled water by a panel of six trained evaluators; format: in vivo; details: for equally sweet level: sweetener alone in bottled water
From the text: A panel of six trained evaluators determined equally sweet levels of sucralose, sucralose+DHB, aspartame, and aspartame+DHB, all in bottled water. […] Previous evaluations had shown 15 ppm DHB as optimal for taste alteration in sucralose products. Greater than 50 ppm DHB, in pure water solutions, has a slightly sweet taste and contributes to the total taste of the solution.

Structure (SMILES)	sweetness delivery profile of aspartame ([1]; effect of DHB on aspartame)	length of time during which sucralose sweetness is perceived ([1]; effect of DHB on sucralose)	DHB level that has a slightly sweet taste and contributes to the total taste ([2]; pure water solutions)	DHB level optimal for taste alteration ([2]; sucralose products, previous evaluations) [ppm]	equally sweet level [2] [ppm]
O=C(O)c1ccc(O)cc1O [DHB, 2,4-dihydroxybenzoic acid]	does not alter	significantly reduces	Greater than 50 ppm	15	–
OC[C@H]1O[C@H](O[C@]2(CCl)O[C@H](CCl)[C@@H](O)[C@@H]2O)[C@H](O)[C@@H](O)[C@H]1Cl [Sample 1, 1,6-dichloro-1,6-dideoxy-β-D-fructofuranosyl-4-chloro-4-deoxy-α-D-galactopyranoside, reference compound]	–	–	–	–	200
COC(=O)[C@H](Cc1ccccc1)NC(=O)[C@@H](N)CC(=O)O [Sample 1, N-L-α-aspartyl-L-phenylalanine methyl ester, reference compound] (H-Asp-Phe-OMe)	–	–	–	–	550
